The results in this text go back to patent US10414774B2, “Compound useful for altering the levels of bile acids for the treatment of diabetes and cardiometabolc disease” (Merck Sharp & Dohme Corp., priority 2016, dated 2019).

The target of the first data set is T1, Human CYP8B1 (Homo sapiens, UniProt Q9UNU6).
T1 sequence (Q9UNU6 1-501): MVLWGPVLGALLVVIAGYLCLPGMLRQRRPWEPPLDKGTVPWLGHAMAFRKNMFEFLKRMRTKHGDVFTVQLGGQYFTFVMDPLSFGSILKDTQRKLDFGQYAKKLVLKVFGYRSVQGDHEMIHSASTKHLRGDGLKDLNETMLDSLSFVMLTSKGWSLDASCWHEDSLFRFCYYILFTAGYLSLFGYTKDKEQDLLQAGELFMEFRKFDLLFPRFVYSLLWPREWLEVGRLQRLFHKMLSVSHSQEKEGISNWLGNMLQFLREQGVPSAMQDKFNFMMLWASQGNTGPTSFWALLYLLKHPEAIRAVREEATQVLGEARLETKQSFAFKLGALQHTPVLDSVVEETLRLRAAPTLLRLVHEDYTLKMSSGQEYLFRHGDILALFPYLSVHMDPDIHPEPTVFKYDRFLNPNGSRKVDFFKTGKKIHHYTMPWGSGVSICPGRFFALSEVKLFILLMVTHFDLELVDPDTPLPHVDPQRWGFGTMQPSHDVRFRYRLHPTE
Briefly: Human CYP8B1 Liver Microsome Assay. Particulars: Human CYP8B1 IC50, human liver microsomes; substrate 7a-hydroxy-4-cholesten-3-one, NADPH; RapidFire MS detection of 7α,12α-dihydroxy-4-cholesten-3-one. (In general: Liver microsomes are a subcellular fraction often used to study metabolism.)
Method: To a 384 well polypropylene plate (Corning 3656), 250 nl of inhibitor in 100% DMSO (1.25% final DMSO concentration) was pre-plated using an Echo liquid handler (Labcyte Inc.). Human liver microsomes (Xenotech) were diluted in of 0.1 M phosphate buffer, pH 7.4, at a concentration of 65 μg/ml and 15 μL was added to the 384 well plate. The plates were incubated at ambient room temperature for 30 minutes. After pre-incubation with inhibitor, the reaction was initiated by adding 5 μl of substrate solution (4.0 μM 7a-hydroxy-4-cholesten-3-one (Toronto Research Chemicals), 2 mM of NADPH (Sigma), 0.1 M phosphate buffer (pH 7.4). The reaction was carried out for 45 minutes at ambient room temperature and was quenched by the addition of 50 μl of acetonitrile+0.1% vol/vol formic acid (FA)+300 nM 7α-hydroxy-4-cholesten-3-one-d7 (Toronto Research Chemicals). The plates were sealed and centrifuged at 3000 rpm for 5 minutes. Plates were loaded onto the Agilent RapidFire RF300 HTMS system, wherein samples were sipped for 600 ms, and the sip sensor detection signals the diversion of sample from the loop onto a C4 solid phase extraction (SPE) cartridge, where salts are washed off for 2500 ms with a mobile phase of water with 0.1% vol/vol FA at a flow rate of 1.5 ml/min. The column path was switched, and the sample was eluted off the cartridge and flowed into the mass spectrometer for 3000 ms with a mobile phase of acetonitrile and 0.1% vol/vol FA at a flow rate of 1.25 ml/min. The aspirator tip was washed separately with water and acetonitrile between sample aspirations (each for 600 ms) to minimize carryover contamination. Mass spectrometry was carried out using a Sciex API4000 triple quadrupole mass spectrometer (Applied Biosystems, Concord, ON, Canada) equipped with electrospray ionization (ESI) operated in the positive-ion mode. The product 7α,12α-dihydroxy-4-cholesten-3-one and internal standard 7α-hydroxy-4-cholsten-3-one-d7 were detected using multiple reaction monitoring (MRM) with Q1/Q3 transitions at m/z 417.3 to 381.3 and m/z 408.3 to 390.3, respectively, with a dwell time of 100 ms and a collision energy of 24 V for each transition. The mass spectrometer used an ESI voltage of 5000 V and a source temperature of 650° C. Extracted ion chromatograms for each transition were integrated and processed using the RapidFire Integrator software. The data for each well were normalized by monitoring product conversion with the ratio of AUCproduct/(AUCinternal standard). The data was then fitted to a four parameter logistic fit using ActivityBase Software to calculate an IC50 of the inhibitor.
As a reminder, the IC50 is the concentration that gives 50% inhibition. A high value points to weaker potency in that assay. As to `C[C@H]1CN(c2c(C#N)c(C(F)F)nc3ccc(Cl)cc23)CC[C@H]1C(=O)N1CCn2c(nnc2C(F)(F)F)C1` (single isomer, unassigned) [Example 57b], the IC50 was 1490 nM. `N#Cc1cnc2ccc(Cl)cc2c1N1CC[C@@H](C(=O)N2CCn3c(nnc3C(F)(F)F)C2)[C@@H](C2CC2)C1` [Example 76a, 6-chloro-4-[(3R,4R)-3-cyclopropyl-4-{[3-(trifluoromethyl)-5,6-dihydro[1,2,4]triazolo[4,3-a]pyrazin-7(8H)-yl]carbonyl}piperidin-1-yl]quinoline-3-carbonitrile]: the IC50 came to 1320 nM.

In the case of `COC(=O)c1ccc2nc(C(=O)OC)c(C#N)c(N3CC[C@H](C(=O)N4CCn5c(nnc5C(F)(F)F)C4)[C@H](C)C3)c2c1` [Example 60, dimethyl 3-cyano-4-[(3S,4S)-3-methyl-4-{[3-(trifluoromethyl)-5,6-dihydro[1,2,4]triazolo[4,3-a]pyrazin-7(8H)-yl]carbonyl}piperidin-1-yl]quinoline-2,6-dicarboxylate], it took 270 nM to reach half-maximal inhibition (IC50).

`C[C@@H]1CN(c2c(C#N)c(C(F)F)nc3ccc(Cl)cc23)CC[C@@H]1C(=O)N1CCn2c(nnc2C(F)(F)F)C1` (single isomer, unassigned) [Example 57a] registered an IC50 of 41 nM. For `C[C@@H]1CN(c2c(C#N)cnc3c(F)c(Cl)ccc23)CC[C@@H]1C(=O)N1CCn2c(nnc2C2CC2)C1` [Example 66, 7-chloro-4-{(3S,4S)-4-[(3-cyclopropyl-5,6-dihydro[1,2,4]triazolo[4,3-a]pyrazin-7(8H)-yl)carbonyl]-3-methylpiperidin-1-yl}-8-fluoroquinoline-3-carbonitrile], the IC50 worked out at 0.51 nM.

In a further data set the target is T1, Human CYP8B1.
Assay: not given
Conditions: not given
“6-chloro-4-[(3S,4S)-4-(6,7-dihydro[1,2,3]triazolo[1,5-a]pyrazin-5-(4H)-ylcarbonyl)-3-methylpiperidin-1-yl]-2-methylquinoline-3-carbonitrile [Example 94]” came in with an IC50 of 4500 nM.
